Source: article PMC10989506, “Cell penetration of oxadiazole-containing macrocycles” (RSC Chemical Biology, 2024)
Where “and” joins values, the source holds several entries; their conditions need not be identical. Equal entries are not always repeated. *1 amine or outer side, *2 acyl side, *3 side chain or, on linkers, in order; H or OH if unused. Where a SMILES comes first, the peptide text is derived from it. Side-chain parts run from the residue outwards. The star is where a group is joined. NH(CH2CH2O)2(CH2)6Cl = ClCCCCCCOCCOCCN*; Suc = O=C(CCC(=O)[*:2])[*:1]

Legend:
[1] = PAMPA; for −log Pe: pH 7.4
Experimental: (§1) 5 Parallel Artificial Membrane Permeability Assay (PAMPA)
(§2) PAMPA analysis was conducted following a procedure reported by Lokey and coworkers. 9 Each measurement was conducted at room temperature in an insulated polystyrene box to maintain a constant internal temperature. Measurements were taken in triplicate, and the reported permeability values are the average value over the three runs. Carbamaz epine was included in the stock solution of each cyclic peptide to verify the integrity of the membrane as an internal standard.
(§3) Preparation of stock solution for donor well: Stock solutions were prepared by dissolving the […]
cyclic peptide (0.5 mM) and carbamazepine (0.5 mM) (as an internal standard) in DMSO at a gross […]
concentration of 1 mM. 10 μL of this stock solution was added to 990 μL PBS buffer (pH 7.4) to […]
give a 1 mL solution (10 μM, 1% DMSO v/v) for addition to the donor plate wells.
Preparation of acceptor plate: A stock solution of 5% DMSO in PBS buffer was prepared, and […]
300μL of this solution was added to each of the acceptor wells (96-well Teflon acceptor plate […]
Preparation of donor plate: 100 mg of lethicin (90%, soybean) was suspended in n -dodecane (10 […]
mL) and sonicated to give a homogenous, clear solution. 5 μL of this solution was carefully applied […]
to the membrane in the 96-well donor plate (with 0.45 μm hydrophobic Immobilon-P membrane […]
supports (Millipore MAIPNTR10)) (with care, without touching the membrane). Shortly after (~5 - […]
15 min), 150 μL of the 10 μM stock solution of cyclic peptide and carbamazepine (prepared as […]
above) were added to the donor well. The donor plate was placed on top of the acceptor wells and […]

[2] = Relative hydrophobicity by reverse-phase HPLC retention time; assay type: physicochemical; conditions: C18 LC-MS, gradient 95%/5% MeCN to 100% MeCN over 15 min; measure of relative lipophilicity
Source text: To provide additional evidence for this hypothesis, we used the retention time on reverse phase HPLC as a measure of the overall relative lipophilicity. […] Overall, the more lipophilic cyclic peptides had more efficient cell penetration than the more hydrophilic ones.

[3] = in vitro
Experimental: (1 picture or pasted object on this page, not shown here) […]
were taken at each time point and quenched in 160 μL of ice-cold methanol. Samples were spun down for 10 min at 21,000 g prior to analysis by reverse phase analytical HPLC on a C18 column.
Chromatogram peaks were integrated to measure amount of peptide remaining at each time point.
Peak volumes for each timepoint were normalized to the zero-hour timepoint to determine percentage of peptide remaining. Data presented are the average of three biological replicates performed with different lysates on different days.
as §1, §2, §3

[4] = test system: HeLa cells stably expressing the HaloTag-GFP-Mito construct; test: Chloroalkane Penetration Assay (CAPA); assay type: cell-based
Source text: Cell-based assays such as the Caco-2 assay and Madin–Darby canine kidney cell line (MDCK) permeability assay have been employed to offer a fuller assessment of transport in vitro.[22,23] The chloroalkane penetration assay (CAPA) is a relatively recent methodology for measuring cell penetration in live cells (Fig. 1d).[24] This assay uses cells that express a modified haloalkane dehalogenase known as HaloTag that reacts rapidly, selectively, and irreversibly with small chloroalkane ligands.[25,26] CAPA measures cytosolic penetration by pulsing cells with a chloroalkane-tagged compound (ct-compound), then chasing with a chloroaklane-tagged dye (ct-dye). If the ct-compound penetrates the cell and escapes from endosomes, it reacts with HaloTag and blocks the reaction with the ct-dye in the subsequent chase step. Thus, in CAPA, cell penetration of the ct-molecule is inversely proportional to the signal from the ct-dye retained in the cells. The dose dependence of this signal can be fit to a sigmoidal curve, whose midpoint value (called the CP50) can be compared among ct-compounds as a quantitative comparison of cell penetration.[27,28] CAPA is a cost-effective and high-throughput method for measuring the cell penetration of cyclic peptides and other molecules, and it establishes penetration to the cytosol without interference from material trapped in endosomes. In this work, we use CAPA to investigate the cell penetration of Odz macrocycles.
3 Chloroalkane Penetration Assay (CAPA)
Media was aspirated and cells were
washed with serum-free media.
Lysate stability assays were performed essentially as described. 8 For lysate stability assays, HeLa

Structure (SMILES)	−log Pe [1]	further results
CC(C)C[C@@H]1NC(=O)CNC(=O)[C@@H]2CCCN2C(=O)[C@H](C)NC(=O)[C@H](Cc2ccccc2)NC(=O)[C@H](CCCCNC(=O)CCC(=O)NCCOCCOCCCCCCCl)NC1=O [Compound 8] (cyclo(PGLK([Suc-NH(CH2CH2O)2(CH2)6Cl])FA))	>8	T ret [2]: 7.95 min; intact compound remaining in HeLa lysate ([3]; 4 h): almost no intact macrocycle; remaining at 1 h, 150 μM ([3]; human, cells or culture medium, pH 8): ~50%; cell penetration, fold worse than compound 1 ([4]; CAPA CP50 compared with compound 1): more than 20 fold; CP50 after 30 min incubation ([4]; ct-peptides incubated with cells in Opti-MEM for 30 min prior to chasing with ct-dye): 1.0 µM and 1.0 ± 0.03 µM; CP50 after 4 h incubation ([4]; ct-peptides incubated with cells in Opti-MEM for 4 h prior to chasing with ct-dye): 0.22 µM and 0.22 ± 0.02 µM
CC[C@H]1C2=NN=C(O2)[C@H](Cc2ccccc2)NC(=O)CNC(=O)[C@H](CC(C)C)NC(=O)[C@H](CCCCNC(=O)CCC(=O)NCCOCCOCCCCCCCl)NC(=O)[C@@H]2CCCN21 [Compound 3]	7.84 ± 0.04	–
CC[C@H]1C2=NN=C(O2)[C@H](Cc2ccccc2)NC(=O)[C@H](CCCCNC(=O)CCC(=O)NCCOCCOCCCCCCCl)NC(=O)[C@H](CC(C)C)NC(=O)[C@H](CC(=O)O)NC(=O)[C@@H]2CCCN21 [Compound 6]	>8	–
CC[C@H]1C2=NN=C(O2)[C@H](CCCCNC(=O)CCC(=O)NCCOCCOCCCCCCCl)NC(=O)CNC(=O)[C@H](CC(C)C)NC(=O)CNC(=O)[C@@H]2CCCN21 [Compound 5]	>8	–
NC(=O)N1c2ccccc2C=Cc2ccccc21 [carbamazepine, reference compound]	–	-Log Papp [1]: 5.7–5.8
CC[C@@H]1N[C@@H](CCCCNC(=O)CCC(=O)NCCOCCOCCCCCCCl)C(=O)NCC(=O)N[C@@H](CC(C)C)C(=O)NCC(=O)N[C@@H](Cc2ccccc2)C2=NN=C1O2 [Compound 4]	7.85 ± 0.052	–
CC[C@H]1C2=NN=C(O2)[C@H](Cc2ccccc2)NC(=O)[C@H](CCCCNC(=O)CCC(=O)NCCOCCOCCCCCCCl)NC(=O)[C@H](CC(=O)O)NC(=O)[C@H](CC(=O)O)NC(=O)[C@@H]2CCCN21 [Compound 7]	>8	–
CC[C@H]1C2=NN=C(O2)[C@H](Cc2ccccc2)NC(=O)CNC(=O)[C@H](CCCCNC(=O)CCC(=O)NCCOCCOCCCCCCCl)NC(=O)CNC(=O)[C@@H]2CCCN21 [Compound 2]	7.92 ± 0.07	–
